Data as given in ChEMBL document CHEMBL1127331, “Pyridobenzoxazepine and pyridobenzothiazepine derivatives as potential central nervous system agents: synthesis and neurochemical study” (J Med Chem, 1994).

Assays:
[1] = molecular target: Muscarinic acetylcholine receptor
Description: Binding affinity against muscarinic (M) receptor

[2] = molecular target: D(1A) dopamine receptor (Rattus norvegicus, UniProt P18901)
Description: Binding affinity against dopamine receptor D1

[3] = species: Rattus norvegicus; experiment: animal or person; details: sc, read-out: Inhibition
Description: (§1) Inhibitory activity in apomorphine antagonism test at a dose of 20 mg/kg, sc

[4] = molecular target: Serotonin 2 (5-HT2) receptor (Rattus norvegicus, UniProt P30994+P08909+P14842)
Description: Binding affinity against serotonin 5-hydroxytryptamine 2 receptor

[5] = species: Rattus norvegicus; experiment: animal or person; details: sc
Description: as §1

Sequence of D(1A) dopamine receptor (P18901 whole entry): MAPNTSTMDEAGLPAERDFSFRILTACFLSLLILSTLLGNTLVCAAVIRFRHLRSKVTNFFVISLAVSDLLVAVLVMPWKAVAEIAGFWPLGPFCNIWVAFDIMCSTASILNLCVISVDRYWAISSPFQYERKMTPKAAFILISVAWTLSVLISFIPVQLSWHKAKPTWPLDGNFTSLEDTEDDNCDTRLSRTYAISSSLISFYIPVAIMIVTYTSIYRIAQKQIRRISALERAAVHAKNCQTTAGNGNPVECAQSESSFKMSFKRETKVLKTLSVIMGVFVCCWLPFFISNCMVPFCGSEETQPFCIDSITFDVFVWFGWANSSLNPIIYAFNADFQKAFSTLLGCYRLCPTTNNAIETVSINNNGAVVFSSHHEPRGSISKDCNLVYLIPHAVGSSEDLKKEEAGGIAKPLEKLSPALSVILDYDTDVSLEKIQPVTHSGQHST

| SMILES | -Log Ki [1] | Ki [2] [nM] | inhibition in vivo at 20 mg/kg [3] [%] | -Log Ki [4] | ED50 [5] [mg/kg] |
| --- | --- | --- | --- | --- | --- |
| CN1CCN(C2=Nc3ccccc3Oc3ncccc32)CC1 | 5.47 | 2400 | 0 | 5.85 |  |
| CN1CCN(C2=Nc3cc(Cl)ccc3Oc3ncccc32)CC1 | 5.65 | 302 | 0 | 7.19 |  |
| CN1CCN(C2=Nc3cccnc3Oc3ccccc32)CC1 | 6.07 |  | 0 | 4.65 |  |
| CN1CCN(C2=Nc3cccnc3Oc3ccc(Cl)cc32)CC1 | 5.86 | 1070 | 100 | 7.35 |  |
| CN1CCN(C2=Nc3cnccc3Sc3ccccc32)CC1 | 6.68 | 15500 | 0 | 6.55 |  |
| Cc1ccc2c(c1)N=C(N1CCN(C)CC1)c1cccnc1O2 | 5.42 | 759 | 0 | 7.01 |  |
| CN1CCN(C2=Nc3ccccc3Sc3ncccc32)CC1 | 5.61 | 1620 | 0 | 6.29 |  |
| CN1CCN(C2=Nc3cccnc3Sc3ccc(Cl)cc32)CC1 | 5.75 | 676 | 100 | 7.35 |  |
| CN1CCN(C2=Nc3cccnc3Sc3ccccc32)CC1 | 6.13 | 8130 | 0 | 5.94 |  |
| CN1CCN(C2=Nc3ccccc3Sc3ccc(Cl)cc32)CC1 [CLOTHIAPINE] |  |  | 100 | 9.23 | 0.72 |
| CN1CCN(C2=Nc3cc(Cl)ccc3Nc3ccccc32)CC1 [CLOZAPINE] |  |  | 0 |  |  |
| CN1CCN(C2=Nc3cc(F)ccc3Cc3ccccc32)CC1 [FLUPERLAPINE] |  |  |  | 8.41 |  |
| O=C(CCCN1CCC(O)(c2ccc(Cl)cc2)CC1)c1ccc(F)cc1 [HALOPERIDOL] |  |  | 100 |  | 0.14 |
| CN1CCN(C2=Nc3cc(Cl)ccc3Sc3ccccc32)CC1 [ISOCLOTHIAPINE] |  |  |  | 8.38 |  |
| CN1CCN(C2=Nc3ccccc3Nc3ccc(Cl)cc32)CC1 [ISOCLOZAPINE] |  |  |  |  | 1.7 |
